{"source": "paper PMC5423902", "about": "“CXCL9-Derived Peptides Differentially Inhibit Neutrophil Migration In Vivo through Interference with Glycosaminoglycan Interactions” (Frontiers in Immunology, 2017)", "key": {"[1]": {"tested_on": "CXCL8(1-77) binding to heparin", "assay": "Competition with CXCL8 for binding to immobilized heparin (ELISA-like)", "parameters": "species or system human", "settings": "heparin-coated plates, n ≥ 4", "description": "(§1) The ability of the COOH-terminal peptides of CXCL9 and CXCL4 to compete for GAG binding with the inflammatory chemokines CXCL8 and CXCL1 was evaluated on heparin-binding plates [BD Biosciences or produced by Jason Whittle (School of Engineering/Future Industries Institute, University of South Australia, Australia)] ([42], [47]). In brief, GAGs (heparin, HS, and CS; Iduron; 25 µg/ml) were coated overnight at room temperature. Dilutions of COOH-terminal CXCL9 or CXCL4 peptide combined with recombinant human CXCL8(1-77) or recombinant murine CXCL1(1-72) (Peprotech, Rocky Hill, NJ, USA) were added in duplicate and incubated for 2 h at 37°C. Subsequently, bound CXCL8 or CXCL1 was detected with biotinylated polyclonal rabbit anti-human CXCL8 or biotinylated polyclonal goat anti-mouse CXCL1 (Peprotech) and horse radish peroxidase-labeled streptavidin. Finally, the peroxidase activity was quantified at 450 nm.\n(§2) Figure 3 CXCL9(74-93) competes with CXCL8 for binding to heparin, heparan sulfate (HS), and cellular glycosaminoglycans (GAGs). Competition between CXCL8 and COOH-terminal CXCL9 or CXCL4 peptides for binding to immobilized heparin (A) or HS (B) and to Chinese hamster ovary (CHO) cells (C) was performed. […] Bound CXCL8 was detected with biotinylated anti-human CXCL8 antibodies. (C) Binding of NH2-terminally biotinylated CXCL8(1-77) (300 nM) to CHO cells in the presence or absence of an excess CXCL9 peptide was detected by streptavidin-allophycocyanin and flow cytometry. The mean (± SEM) percentage inhibition of binding of CXCL8(1-77) to heparin, HS or cellular GAGs is indicated on the y-axis (n ≥ 4). Statistical comparison of the different competitors with CXCL9(74–103) was performed using the Mann–Whitney U-test (*p < 0.05)."}, "[2]": {"tested_on": "cellular GAGs on CHO cells", "settings": "binds dose-dependently to GAGs on CHO cells; cited from earlier work"}, "[3]": {"assay": "Plasma level of intravenously injected fluorescent CXCL9(74-103)", "format": "in vivo, mouse", "settings": "spectrofluorometric", "source_text": "Intravenously injected fluorescent CXCL9(74-103) was detected in plasma after different time intervals by spectrofluorometric analysis and quantified against murine plasma spiked with known concentrations of the fluorescent peptide."}, "[4]": {"tested_on": "CXCL8(1-77) binding to heparan sulfate (HS)", "assay": "Competition with CXCL8 for binding to immobilized HS (ELISA-like)", "parameters": "species or system human", "settings": "CXCL8(1-77) 0-300 nM, n ≥ 4, Figure 3B", "description": "as §1, §2"}, "[5]": {"tested_on": "CXCL8-induced neutrophil migration", "settings": "cited from earlier work"}, "[6]": {"tested_on": "CXCL1(1-72) binding to heparan sulfate (HS)", "assay": "Competition with CXCL1 for binding to immobilized HS", "parameters": "species or system murine", "settings": "n ≥ 3; Figure 6A", "description": "as §1\nCompetition between CXCL1 and COOH-terminal CXCL9 peptides for binding to immobilized heparan sulfate (HS) (A) and chondroitin sulfate (CS) (B) was performed. […] Bound CXCL1 was detected with biotinylated polyclonal goat anti-mouse CXCL1 antibodies. The mean (± SEM) percentage inhibition of CXCL1 binding to GAGs is indicated on the y-axis (n ≥ 3). Statistical comparison of the different competitors with CXCL9(74–103) was performed using the Mann–Whitney U-test."}, "[7]": {"tested_on": "CXCL8-induced neutrophil migration", "assay": "CXCL8-induced neutrophil migration to the peritoneal cavity", "format": "in vivo, mouse (NMRI)", "settings": "108 µg peptide i.p.; data not shown", "description": "In vivo neutrophil extravasation to the peritoneal or the knee cavity was examined, respectively, by intraperitoneal or intra-articular injection, of endotoxin-free recombinant CXCL8(1-77) (PeproTech) or vehicle (PBS) in female NMRI or C57BL/6 mice, as described previously ([42], [48]). Simultaneously, synthetic CXCL9 peptide was co-injected either intraperitoneally or injected intravenously. After 2 h (peritoneal cavity) or 3 h (knee cavity), mice were sacrificed. The peritoneal cavity was washed with saline enriched with 2% FCS and 20 U/ml heparin and total leukocyte counts were determined. For the preparation of cytospins, 10^5 cells were used and absolute number and percentage of neutrophils in the lavages were determined in duplicate independently by two researchers by differential microscopic counting. The cells present in the tibiofemoral articulation were harvested by washing the cavity with 10 µl of 3% (w/v) bovine serum albumin in PBS and diluted in 90 µl of 3% (w/v) bovine serum albumin in PBS. The number of total leukocytes was determined by counting leukocytes in a Neubauer chamber after staining with Turk’s solution. Differential counts were obtained from cytospin preparations by evaluating the percentage of each leukocyte type on a slide stained with May-Grunwald-Giemsa solution.\nFigure 4 The COOH-terminal peptides of CXCL9 inhibit CXCL8-induced neutrophil migration to the peritoneal cavity. CXCL8(1-77) was injected into the peritoneal cavity of NMRI mice (n ≥ 5) simultaneously with an intraperitoneal (A) or intravenous (B,C) injection of CXCL9(74-103) or CXCL9(74–93). The number of neutrophils in the peritoneal cavity, 2 h post injection, were evaluated by differentially counting the leukocyte subtypes on Hemacolor-stained cytospins. The neutrophil counts are shown for every individual mouse, and the horizontal lines denote the median percentage. To detect statistically significant differences, the Mann–Whitney U-test was carried out (*p < 0.05; **p < 0.01; ***p < 0.005)."}, "[8]": {"tested_on": "HS expression on CHO cells", "assay": "HS expression on CHO cells after NaClO3 treatment, flow cytometry", "format": "cell-based, Chinese hamster", "settings": "100 mM NaClO3, 24 h; anti-HS antibody; data not shown", "description": "Chinese hamster ovary (CHO) cells were a gift from M. Parmentier (ULB, Brussels, Belgium) and were cultured in Ham’s F-12 medium (with L-glutamine; Lonza, Belgium) supplemented with 10% fetal calf serum (FCS) and 0.8% G418 (Geneticin®; Life Technologies), as described ([44]). To inhibit sulfation of cellular GAGs, CHO cells were cultured in the presence of 100 mM sodium chlorate (NaClO3) for 24 h as previously described ([42]).\nBinding of biotinylated CXCL9(74-103) and CXCL9(74-93) to CHO cells was assessed by flow cytometry as recently described ([42]). Briefly, cells were detached with phosphate-buffered saline (PBS) with 0.02% ethylenediaminetetraacetic acid (EDTA) and incubated with NH2-terminally biotinylated peptides. Subsequently, cells were incubated with streptavidin-allophycocyanin (BD Biosciences, San Jose, CA, USA) and analyzed by flow cytometry (FACSCalibur, BD Biosciences). To confirm inhibition of sulfation of cellular GAGs, part of the cells were stained with a mouse monoclonal anti-human HS antibody (Immunosource, Schilde, Belgium) and a secondary phycoerythrin-labeled goat anti-mouse antibody (BD Biosciences). Finally, cells were analyzed by flow cytometry. Analogously, binding of 100 nM biotinylated CXCL8 in the presence or absence of CXCL9(74-103) or CXCL9(74-93) was compared on CHO cells."}}, "note": "Peptide text beside a SMILES is read from it. * marks the point of attachment. 5TAMRA = CN(C)c1ccc2c(c1)Oc1cc(N(C)C)ccc1C21OC(=O)c2cc(C(=O)*)ccc21"}
{"molecule": "47NGRKICLDLQAPLYKKIIKKLLES70 [CXCL4(47-70), COOH-terminal peptide of CXCL4, reference compound]", "values": [{"measurement": "molar excess over CXCL8 giving 50% reduction of CXCL8 binding to heparin", "setting": "[1]; CXCL8(1-77) 0-300 nM, 2 h at 37°C, anti-CXCL8 detection, 450 nm, Figure 3A", "value": "more than 100 fold molar excess"}, {"measurement": "competition with CXCL8 for heparin binding (relative potency)", "setting": "[1]; Figure 3", "value": "less potent competitor of CXCL8 binding than the CXCL9 peptides"}, {"measurement": "affinity for GAGs on CHO cells relative to CXCL9(74-103)", "setting": "[2]", "value": "about fivefold lower affinity than CXCL9(74-103)"}]}
{"molecule": "CC(C)C[C@H](NC(=O)[C@@H](NC(=O)[C@H](CCCCN)NC(=O)[C@H](CCCCN)NC(=O)[C@H](CCCCN)NC(=O)[C@H](CCC(N)=O)NC(=O)[C@H](Cc1c[nH]cn1)NC(=O)[C@H](CCCCN)NC(=O)[C@H](CCCCN)NC(=O)CNC(=O)[C@H](CC(N)=O)NC(=O)[C@H](CCCCN)NC(=O)[C@H](CCC(N)=O)NC(=O)[C@H](CCCCN)NC(=O)[C@H](CCCCN)NC(=O)[C@H](CCCCN)NC(=O)c1ccc2c(c1)C(=O)OC21c2ccc(N(C)C)cc2Oc2cc(N(C)C)ccc21)C(C)C)C(=O)N[C@@H](CCCCN)C(=O)N[C@H](C(=O)N[C@@H](CCCNC(=N)N)C(=O)N[C@@H](CCCCN)C(=O)N[C@@H](CO)C(=O)N[C@@H](CCC(N)=O)C(=O)N[C@@H](CCCNC(=N)N)C(=O)N[C@@H](CO)C(=O)N[C@@H](CCCNC(=N)N)C(=O)N[C@@H](CCC(N)=O)C(=O)N[C@@H](CCCCN)C(=O)N[C@@H](CCCCN)C(=O)N[C@H](C(=O)N[C@H](C(=O)O)[C@@H](C)O)[C@@H](C)O)C(C)C", "note": "[TAMRA-CXCL9(74-103)] (5TAMRA-KKKQKNGKKHQKKKVLKVRKSQRSRQKKTT-OH)", "values": [{"measurement": "fraction of injected amount detected in plasma", "setting": "[3]; 5 min after i.v. injection, assuming a blood volume of 3 ml", "value": 3, "unit": "%"}, {"measurement": "level at 5 min", "setting": "[3]; mouse, plasma, iv, 5 min after i.v. injection, read-out: plasma concentration", "value": 2000, "unit": "ng/mL"}, {"measurement": "level at 1 h", "setting": "[3]; mouse, plasma, iv, 1 h after i.v. injection, no circulating peptide detected, read-out: plasma concentration", "value": "< 240", "unit": "ng/mL"}]}
{"molecule": "86KKVLKVRKSQRSRQKKTT103 [CXCL9(86-103), COOH-terminal peptide of CXCL9]", "values": [{"measurement": "inhibition of CXCL8 binding on HS-coated plates", "setting": "[4]", "value": "poorly competing"}, {"measurement": "inhibition of chemotactic activity of CXCL8 in vivo", "setting": "[5]", "value": "unable to inhibit chemotactic activity of CXCL8 in vivo"}, {"measurement": "competition for CXCL1 binding to HS", "setting": "[6]", "value": "not able to inhibit the interaction between CXCL1 and HS"}, {"measurement": "inhibition of CXCL8-induced neutrophil migration to peritoneal cavity", "setting": "[7]", "value": "did not inhibit CXCL8-induced neutrophil migration"}]}
{"molecule": "[Na+].[O-][Cl+2]([O-])[O-]", "note": "[NaClO3, sodium chlorate]", "values": [{"measurement": "reduction of HS expression on CHO cells", "setting": "[8]", "value": 71.4, "unit": "%"}]}
